Measured values taken from publication PMC6325563 (eNeuro, 2019).

Legend:
Experiment in all cases: two-electrode voltage clamp, Xenopus oocytes
Type in all cases: cell-based
[1] = target: T1, (α4)3(β2)2 nAChR (low sensitivity) (Rattus norvegicus, UniProt P09483+P12390)
T1 construct: gene Chrna4; subunits in pGEMhe, mRNA alpha4:beta2 10:1 injected in Xenopus laevis oocytes; pentamer
Excerpt: (§1) two-electrode voltage clamp, Xenopus oocytes on (α4)3(β2)2 nAChR (low sensitivity)

[2] = target: T2, (α4)2(β2)3 nAChR (high sensitivity) (Rattus norvegicus, UniProt P09483+P12390)
T2 construct: gene Chrna4; subunits in pGEMhe, mRNA alpha4:beta2 1:10 injected in Xenopus laevis oocytes; pentamer
Excerpt: (§2) two-electrode voltage clamp, Xenopus oocytes on (α4)2(β2)3 nAChR (high sensitivity)

α5[wt](α4[wt]β2[wt])2 = target: T3, α5[wt](α4[wt]β2[wt])2 (Rattus norvegicus, UniProt P09483+P12390); conditions: read-out: IC50 (μM (-)-menthol) ± SEM
T3 construct: gene Chrna4; Xenopus laevis oocytes; alpha5 in the auxiliary position of alpha4beta2
Excerpt: two-electrode voltage clamp, Xenopus oocytes on α5[wt](α4[wt]β2[wt])2

[3] = target: T4, (α4)3(β2)2 nAChR (low sensitivity) (Rattus norvegicus, UniProt P09483+P12390, P09483:L285I); conditions: read-out: IC50 (μM (-)-menthol) ± SEM
T4 construct: gene Chrna4; subunits in pGEMhe, mRNA alpha4:beta2 10:1 injected in Xenopus laevis oocytes; pentamer
Excerpt: as §1

[4] = target: T5, (α4)3(β2)2 nAChR (low sensitivity) (Rattus norvegicus, UniProt P09483+P12390, P09483:L285M); conditions: read-out: IC50 (μM (-)-menthol) ± SEM
T5 construct: gene Chrna4; subunits in pGEMhe, mRNA alpha4:beta2 10:1 injected in Xenopus laevis oocytes; pentamer
Excerpt: as §1

[5] = target: T6, (α4)3(β2)2 nAChR (low sensitivity) (Rattus norvegicus, UniProt P09483+P12390, P09483:S286L); conditions: read-out: IC50 (μM (-)-menthol) ± SEM
T6 construct: gene Chrna4; subunits in pGEMhe, mRNA alpha4:beta2 10:1 injected in Xenopus laevis oocytes; pentamer
Excerpt: as §1

[6] = target: T7, (α4)2(β2)3 nAChR (high sensitivity) (Rattus norvegicus, UniProt P09483+P12390, P09483:L285C); conditions: read-out: IC50 (μM (-)-menthol) ± SEM
T7 construct: gene Chrna4; subunits in pGEMhe, mRNA alpha4:beta2 1:10 injected in Xenopus laevis oocytes; pentamer
Excerpt: as §2

[7] = target: T8, (α4)2(β2)3 nAChR (high sensitivity) (Rattus norvegicus, UniProt P09483+P12390, P09483:L285F); conditions: read-out: IC50 (μM (-)-menthol) ± SEM
T8 construct: gene Chrna4; subunits in pGEMhe, mRNA alpha4:beta2 1:10 injected in Xenopus laevis oocytes; pentamer
Excerpt: as §2

[8] = target: T9, (α4)2(β2)3 nAChR (high sensitivity) (Rattus norvegicus, UniProt P09483+P12390, P09483:L285I); conditions: read-out: IC50 (μM (-)-menthol) ± SEM
T9 construct: gene Chrna4; subunits in pGEMhe, mRNA alpha4:beta2 1:10 injected in Xenopus laevis oocytes; pentamer
Excerpt: as §2

[9] = target: T10, (α4)2(β2)3 nAChR (high sensitivity) (Rattus norvegicus, UniProt P09483+P12390, P09483:L285M); conditions: read-out: IC50 (μM (-)-menthol) ± SEM
T10 construct: gene Chrna4; subunits in pGEMhe, mRNA alpha4:beta2 1:10 injected in Xenopus laevis oocytes; pentamer
Excerpt: as §2

[10] = target: T11, (α4)2(β2)3 nAChR (high sensitivity) (Rattus norvegicus, UniProt P09483+P12390, P09483:L285Q); conditions: read-out: IC50 (μM (-)-menthol) ± SEM
T11 construct: gene Chrna4; subunits in pGEMhe, mRNA alpha4:beta2 1:10 injected in Xenopus laevis oocytes; pentamer
Excerpt: as §2

[11] = target: T12, (α4)2(β2)3 nAChR (high sensitivity) (Rattus norvegicus, UniProt P09483+P12390, P09483:L285S); conditions: read-out: IC50 (μM (-)-menthol) ± SEM
T12 construct: gene Chrna4; subunits in pGEMhe, mRNA alpha4:beta2 1:10 injected in Xenopus laevis oocytes; pentamer
Excerpt: as §2

[12] = target: T13, (α4)2(β2)3 nAChR (high sensitivity) (Rattus norvegicus, UniProt P09483+P12390, P09483:L285W); conditions: read-out: IC50 (μM (-)-menthol) ± SEM
T13 construct: gene Chrna4; subunits in pGEMhe, mRNA alpha4:beta2 1:10 injected in Xenopus laevis oocytes; pentamer
Excerpt: as §2

T1 sequence (P09483 31-630): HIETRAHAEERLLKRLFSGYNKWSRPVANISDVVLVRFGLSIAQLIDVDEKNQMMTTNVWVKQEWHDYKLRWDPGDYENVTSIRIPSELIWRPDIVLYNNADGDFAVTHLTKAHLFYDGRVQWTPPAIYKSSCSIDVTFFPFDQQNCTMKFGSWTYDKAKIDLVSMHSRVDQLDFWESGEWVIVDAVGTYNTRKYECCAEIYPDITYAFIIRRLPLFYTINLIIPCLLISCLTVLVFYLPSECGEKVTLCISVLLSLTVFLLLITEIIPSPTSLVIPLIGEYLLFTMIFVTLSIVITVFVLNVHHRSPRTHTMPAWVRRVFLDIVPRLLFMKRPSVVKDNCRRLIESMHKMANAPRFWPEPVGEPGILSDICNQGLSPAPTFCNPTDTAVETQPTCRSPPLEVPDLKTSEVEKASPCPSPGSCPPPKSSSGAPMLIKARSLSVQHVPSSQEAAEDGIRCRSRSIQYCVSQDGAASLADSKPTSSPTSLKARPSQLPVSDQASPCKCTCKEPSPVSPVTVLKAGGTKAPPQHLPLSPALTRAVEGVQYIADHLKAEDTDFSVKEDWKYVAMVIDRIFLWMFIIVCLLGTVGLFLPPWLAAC
T1 sequence (P12390 25-500): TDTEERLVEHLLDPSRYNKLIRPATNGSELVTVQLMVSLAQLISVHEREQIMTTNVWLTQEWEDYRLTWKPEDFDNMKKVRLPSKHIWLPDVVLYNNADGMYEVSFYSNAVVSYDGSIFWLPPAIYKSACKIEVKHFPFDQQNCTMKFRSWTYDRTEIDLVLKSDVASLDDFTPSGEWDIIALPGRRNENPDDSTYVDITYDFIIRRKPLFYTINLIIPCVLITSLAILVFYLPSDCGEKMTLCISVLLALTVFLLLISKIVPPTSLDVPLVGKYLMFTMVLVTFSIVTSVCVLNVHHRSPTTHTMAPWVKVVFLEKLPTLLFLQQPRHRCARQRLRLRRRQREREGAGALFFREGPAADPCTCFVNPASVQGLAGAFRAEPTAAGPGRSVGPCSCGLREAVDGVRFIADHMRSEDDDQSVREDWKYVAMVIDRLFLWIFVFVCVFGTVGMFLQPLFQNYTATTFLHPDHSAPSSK
T2 sequence (P09483 31-630): as the sequence (P09483 31-630) above
T2 sequence (P12390 25-500): as the sequence (P12390 25-500) above
T11 sequence (P09483 31-630 L285Q): as the sequence (P09483 31-630) above, with L255Q counted along it
T11 sequence (P12390 25-500): as the sequence (P12390 25-500) above
T8 sequence (P09483 31-630 L285F): as the sequence (P09483 31-630) above, with L255F counted along it
T8 sequence (P12390 25-500): as the sequence (P12390 25-500) above
T9 sequence (P09483 31-630 L285I): as the sequence (P09483 31-630) above, with L255I counted along it
T9 sequence (P12390 25-500): as the sequence (P12390 25-500) above
T4 sequence (P09483 31-630 L285I): as the sequence (P09483 31-630) above, with L255I counted along it
T4 sequence (P12390 25-500): as the sequence (P12390 25-500) above
T3 sequence (P09483 31-630): as the sequence (P09483 31-630) above
T3 sequence (P12390 25-500): as the sequence (P12390 25-500) above
T3 sequence (P20420 28-452 partner): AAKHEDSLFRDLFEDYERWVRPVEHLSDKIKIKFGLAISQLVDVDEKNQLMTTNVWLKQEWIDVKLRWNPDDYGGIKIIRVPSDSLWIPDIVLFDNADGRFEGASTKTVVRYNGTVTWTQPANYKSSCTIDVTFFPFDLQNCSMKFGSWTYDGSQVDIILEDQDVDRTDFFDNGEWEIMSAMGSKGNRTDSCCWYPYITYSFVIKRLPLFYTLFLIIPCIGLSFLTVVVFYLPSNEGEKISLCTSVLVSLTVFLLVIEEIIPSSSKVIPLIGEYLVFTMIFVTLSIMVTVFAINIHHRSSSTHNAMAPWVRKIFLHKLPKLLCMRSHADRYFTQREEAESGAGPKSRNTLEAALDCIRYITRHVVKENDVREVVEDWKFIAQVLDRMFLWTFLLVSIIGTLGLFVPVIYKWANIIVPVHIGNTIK
T13 sequence (P09483 31-630 L285W): as the sequence (P09483 31-630) above, with L255W counted along it
T13 sequence (P12390 25-500): as the sequence (P12390 25-500) above
T12 sequence (P09483 31-630 L285S): as the sequence (P09483 31-630) above, with L255S counted along it
T12 sequence (P12390 25-500): as the sequence (P12390 25-500) above
T6 sequence (P09483 31-630 S286L): as the sequence (P09483 31-630) above, with S256L counted along it
T6 sequence (P12390 25-500): as the sequence (P12390 25-500) above
T7 sequence (P09483 31-630 L285C): as the sequence (P09483 31-630) above, with L255C counted along it
T7 sequence (P12390 25-500): as the sequence (P12390 25-500) above
T10 sequence (P09483 31-630 L285M): as the sequence (P09483 31-630) above, with L255M counted along it
T10 sequence (P12390 25-500): as the sequence (P12390 25-500) above
T5 sequence (P09483 31-630 L285M): as the sequence (P09483 31-630) above, with L255M counted along it
T5 sequence (P12390 25-500): as the sequence (P12390 25-500) above

CC(C)[C@H]1CC[C@H](C)C[C@@H]1O [(+)-menthol]
IC50 [1]: 45.5 ± 2.03 µM | IC50 [2]: 48.3 ± 1.67 µM

CC(C)[C@@H]1CC[C@@H](C)C[C@H]1O [(−)-menthol]
IC50 (α5[wt](α4[wt]β2[wt])2): 51 ± 9.06 µM | IC50 [1]: 33.1 ± 1.83 µM | IC50 [3]: 127 ± 29.1 µM | IC50 [4]: 39.2 ± 7.98 µM | IC50 [5]: 29.4 ± 4.32 µM | IC50 [2]: 44.9 ± 1.62 µM | IC50 [6]: 306 ± 173 µM | IC50 [7]: 211 ± 75.6 µM | IC50 [8]: 97.3 ± 38.5 µM | IC50 [9]: 26.6 ± 1.9 µM | IC50 [10]: 165 ± 28.1 µM | IC50 [11]: 514 ± 361 µM | IC50 [12]: 28.8 ± 3.26 µM
